# Laboratory results reported in BindingDB's records for doi:10.1016/j.ejmech.2020.112602 (Utah State University, 2020).
# Key:
# [1] = Inhibition of human Cx43 expressed in Escherichia coli LB2003 cells in medium containing 8 mM K+ and 10 uM IPTG by measuring cell growth after 18 hrs by plate reader
# [2] = Inhibition of human Cx26 expressed in Escherichia coli LB2003 cells in medium containing 4 mM K+ and 500 uM IPTG by measuring cell growth after 18 hrs by plate reader
IC50 [1] [µM],IC50 [2] [µM],Structure (SMILES)
17.1,,NC[C@H]1O[C@H](O[C@H]2[C@H](O)[C@@H](O[C@H]3O[C@H](COCc4ccc(Cl)cc4)[C@@H](OCc4ccc(Cl)cc4)[C@H](N)[C@H]3O)[C@H](N)C[C@@H]2N)[C@H](O)[C@@H](O)[C@@H]1O
17.7,6,NC[C@H]1O[C@H](O[C@H]2[C@H](O)[C@@H](O[C@H]3O[C@H](COc4ccc(-c5nc6ccccc6[nH]5)cc4)[C@@H](O)[C@H](N)[C@H]3O)[C@H](N)C[C@@H]2N)[C@H](O)[C@@H](O)[C@@H]1O
8.9,17.2,NC[C@H]1O[C@H](O[C@H]2[C@H](O)[C@@H](O[C@H]3O[C@H](COc4ccc(Cl)cc4)[C@@H](O)[C@H](N)[C@H]3O)[C@H](N)C[C@@H]2N)[C@H](O)[C@@H](O)[C@@H]1O
6.2,49.4,Cc1ccc(OC[C@H]2O[C@H](O[C@@H]3[C@@H](O)[C@H](O[C@H]4O[C@H](CN)[C@@H](O)[C@H](O)[C@H]4O)[C@@H](N)C[C@H]3N)[C@H](O)[C@@H](N)[C@@H]2O)cc1

# More lines, now with the values behind:
Structure (SMILES),IC50 [1] [µM],IC50 [2] [µM]
NC[C@H]1O[C@H](O[C@H]2[C@H](O)[C@@H](O[C@H]3O[C@H](COCc4ccc(F)cc4)[C@@H](OCc4ccc(F)cc4)[C@H](N)[C@H]3O)[C@H](N)C[C@@H]2N)[C@H](O)[C@@H](O)[C@@H]1O,26.6,
Cc1ccc(COC[C@H]2O[C@H](O[C@@H]3[C@@H](O)[C@H](O[C@H]4O[C@H](CN)[C@@H](O)[C@H](O)[C@H]4O)[C@@H](N)C[C@H]3N)[C@H](O)[C@@H](N)[C@@H]2OCc2ccc(C)cc2)cc1,3.1,
NC[C@H]1O[C@H](O[C@H]2[C@H](O)[C@@H](O[C@H]3O[C@H](COCc4cccc(-c5ccccc5)c4)[C@@H](OCc4cccc(-c5ccccc5)c4)[C@H](N)[C@H]3O)[C@H](N)C[C@@H]2N)[C@H](O)[C@@H](O)[C@@H]1O,5.5,
N[C@@H]1[C@@H](O)[C@@H](O[C@@H]2[C@@H](O)[C@H](O[C@H]3O[C@H](CNC(=O)c4ccccc4-c4c5ccc(=O)cc-5oc5cc(O)ccc45)[C@@H](O)[C@H](O)[C@H]3O)[C@@H](N)C[C@H]2N)O[C@H](CO)[C@H]1O,8.9,12.7
CCCCCCCCCCCC(=O)NC[C@H]1O[C@H](O[C@H]2[C@H](O)[C@@H](O[C@H]3O[C@H](CO)[C@@H](O)[C@H](N)[C@H]3O)[C@H](N)C[C@@H]2N)[C@H](O)[C@@H](O)[C@@H]1O,,66.7
NC[C@H]1O[C@H](O[C@H]2[C@H](O)[C@@H](O[C@H]3O[C@H](COCc4ccc5ccccc5c4)[C@@H](OCc4ccc5ccccc5c4)[C@H](N)[C@H]3O)[C@H](N)C[C@@H]2N)[C@H](O)[C@@H](O)[C@@H]1O,6.2,
COc1ccc(COC[C@H]2O[C@H](O[C@@H]3[C@@H](O)[C@H](O[C@H]4O[C@H](CN)[C@@H](O)[C@H](O)[C@H]4O)[C@@H](N)C[C@H]3N)[C@H](O)[C@@H](N)[C@@H]2OCc2ccc(OC)cc2)cc1,4.1,
N[C@@H]1[C@@H](O)[C@@H](O[C@@H]2[C@@H](O)[C@H](O[C@H]3O[C@H](CNC(=O)CCCc4cc5ccc6cccc7ccc(c4)c5c67)[C@@H](O)[C@H](O)[C@H]3O)[C@@H](N)C[C@H]2N)O[C@H](CO)[C@H]1O,8.6,18.6
